Structures can show the parent of a compound that is named as a salt.
Experiments:
ISC-enriched organoids [1] = experiment: Primary screen, 384-well 2.5-D organoid differentiation (ENR+CD, 6 days): basal lysozyme secretion (LYZ.NS); assay type: cell-based, murine; conditions: for Dose.FC.LYZ.NS (log 2 fold change): vs plate median; for Dose.FC.LYZ.NS: FC vs plate median; for SSMD.LYZ.NS: strictly standardized mean difference
Source text: (§1) High-throughput screening.

ISC-enriched organoids [2] = experiment: Primary screen, 384-well 2.5-D organoid differentiation (ENR+CD, 6 days, Target Selective Inhibitor Library, vs whole-plate median): ATP (CellTiter-Glo 3D, CTG); conditions: for Dose.FC.CTG (log 2 fold change): vs plate median; for Dose.FC.CTG: FC vs plate median; for SSMD.CTG: strictly standardized mean difference
ISC-enriched organoids [3] = experiment: Primary screen, 384-well 2.5-D organoid differentiation (ENR+CD, 6 days): carbachol-induced lysozyme secretion (LYZ.S); assay type: cell-based, murine; conditions: primary screen; for Dose.FC.LYZ.S (log 2 fold change): vs plate median; for Dose.FC.LYZ.S: ENR+CD 6 days, FC vs plate median
Source text: as §1

[4] = Dose 0.08 uM, primary screen, standard z score
[5] = Dose 0.40 uM, primary screen, standard z score
[6] = Dose 2.00 uM, primary screen, standard z score
[7] = Dose 10.00 uM, primary screen, standard z score
[8] = primary screen, 1st of the 4 dose lines of the treatment (dose not given)
[9] = primary screen, 2nd of the 4 dose lines of the treatment (dose not given)
[10] = primary screen, 3rd of the 4 dose lines of the treatment (dose not given)
[11] = primary screen, 4th of the 4 dose lines of the treatment (dose not given)
[12] = primary screen, dose 0.40 uM, standard z score of FC
[13] = primary screen, dose 0.08 uM, standard z score of FC
[14] = primary screen, dose 2.00 uM, standard z score of FC
[15] = primary screen, dose 10.00 uM, standard z score of FC

Cc1ccc(C(=O)N(CCCN)[C@@H](c2oc3cc(Cl)ccc3c(=O)c2Cc2ccccc2)C(C)C)cc1 [SB743921]
Z.LYZ.NS (standard z score) (ISC-enriched organoids [1]; Dose 0.08 uM, primary screen): −2.017 | Dose.FC.LYZ.NS (log 2 fold change) (ISC-enriched organoids [1]; Dose 0.08 uM, primary screen): −0.232 | Z.LYZ.NS (standard z score) (ISC-enriched organoids [1]; Dose 0.40 uM, primary screen): −2.148 | Dose.FC.LYZ.NS (log 2 fold change) (ISC-enriched organoids [1]; Dose 0.40 uM, primary screen): −0.247 | Z.LYZ.NS (standard z score) (ISC-enriched organoids [1]; Dose 2.00 uM, primary screen): −2.297 | Dose.FC.LYZ.NS (log 2 fold change) (ISC-enriched organoids [1]; Dose 2.00 uM, primary screen): −0.264 | Z.LYZ.NS (standard z score) (ISC-enriched organoids [1]; Dose 10.00 uM, primary screen): −2.068 | Dose.FC.LYZ.NS (log 2 fold change) (ISC-enriched organoids [1]; Dose 10.00 uM, primary screen): −0.238 | Z.CTG (standard z score) (ISC-enriched organoids [2]; Dose 0.08 uM, primary screen): −1.159 | Dose.FC.CTG (log 2 fold change) (ISC-enriched organoids [2]; Dose 0.08 uM, primary screen): −0.485 | Z.CTG (standard z score) (ISC-enriched organoids [2]; Dose 0.40 uM, primary screen): −1.855 | Dose.FC.CTG (log 2 fold change) (ISC-enriched organoids [2]; Dose 0.40 uM, primary screen): −0.777 | Z.CTG (standard z score) (ISC-enriched organoids [2]; Dose 2.00 uM, primary screen): −1.158 | Dose.FC.CTG (log 2 fold change) (ISC-enriched organoids [2]; Dose 2.00 uM, primary screen): −0.485 | Z.CTG (standard z score) (ISC-enriched organoids [2]; Dose 10.00 uM, primary screen): −1.294 | Dose.FC.CTG (log 2 fold change) (ISC-enriched organoids [2]; Dose 10.00 uM, primary screen): −0.542 | Dose.FC.LYZ.S (log 2 fold change) (ISC-enriched organoids [3]; Dose 0.08 uM): −0.321 | Dose.FC.LYZ.S (log 2 fold change) (ISC-enriched organoids [3]; Dose 0.40 uM): −0.329 | Dose.FC.LYZ.S (log 2 fold change) (ISC-enriched organoids [3]; Dose 2.00 uM): −0.340 | Dose.FC.LYZ.S (log 2 fold change) (ISC-enriched organoids [3]; Dose 10.00 uM): −0.350

C=CC(=O)N1CCC[C@@H](n2nc(-c3ccc(Oc4ccccc4)cc3)c3c(N)ncnc32)C1 [Ibrutinib (PCI-32765)]
Dose.FC.LYZ.NS (ISC-enriched organoids [1]; Dose 0.08 uM, primary screen): −0.071 log 2 fold change | Z.LYZ.NS (ISC-enriched organoids [1]; [4]): −0.619 | Dose.FC.LYZ.NS (ISC-enriched organoids [1]; Dose 0.40 uM, primary screen): −0.141 log 2 fold change | Z.LYZ.NS (ISC-enriched organoids [1]; [5]): −1.225 | Dose.FC.LYZ.NS (ISC-enriched organoids [1]; Dose 2.00 uM, primary screen): −0.202 log 2 fold change | Z.LYZ.NS (ISC-enriched organoids [1]; [6]): −1.763 | Dose.FC.LYZ.NS (ISC-enriched organoids [1]; Dose 10.00 uM, primary screen): −0.199 log 2 fold change | Z.LYZ.NS (ISC-enriched organoids [1]; [7]): −1.737 | SSMD.LYZ.NS (ISC-enriched organoids [1]; [8]): −0.704 | SSMD.LYZ.NS (ISC-enriched organoids [1]; [9]): −1.031 | SSMD.LYZ.NS (ISC-enriched organoids [1]; [10]): −1.175 | SSMD.LYZ.NS (ISC-enriched organoids [1]; [11]): −1.325 | Dose.FC.CTG (ISC-enriched organoids [2]; Dose 0.08 uM, primary screen): −0.027 log 2 fold change | Z.CTG (ISC-enriched organoids [2]; [4]): −0.065 | Dose.FC.CTG (ISC-enriched organoids [2]; Dose 0.40 uM, primary screen): −0.466 log 2 fold change | Z.CTG (ISC-enriched organoids [2]; [5]): −1.112 | Dose.FC.CTG (ISC-enriched organoids [2]; Dose 2.00 uM, primary screen): −0.521 log 2 fold change | Z.CTG (ISC-enriched organoids [2]; [6]): −1.244 | Dose.FC.CTG (ISC-enriched organoids [2]; Dose 10.00 uM, primary screen): −0.931 log 2 fold change | Z.CTG (ISC-enriched organoids [2]; [7]): −2.224 | SSMD.CTG (ISC-enriched organoids [2]; [8]): −0.062 | SSMD.CTG (ISC-enriched organoids [2]; [9]): −0.574 | SSMD.CTG (ISC-enriched organoids [2]; [10]): −1.005 | SSMD.CTG (ISC-enriched organoids [2]; [11]): −0.875

NC(=O)c1cccc(-c2cccc(OC(=O)NC3CCCCC3)c2)c1 [URB597]
Z.LYZ.NS (standard z score) (ISC-enriched organoids [1]; dose 0.08 uM): 0.754 | Z.LYZ.NS (standard z score) (ISC-enriched organoids [1]; dose 0.40 uM): −0.007 | Z.LYZ.NS (standard z score) (ISC-enriched organoids [1]; dose 2.00 uM): 0.307 | Z.LYZ.NS (standard z score) (ISC-enriched organoids [1]; dose 10.00 uM): −0.123 | Z.CTG (standard z score) (ISC-enriched organoids [2]; dose 0.08 uM): 0.750 | Z.CTG (standard z score) (ISC-enriched organoids [2]; dose 0.40 uM): 0.154 | Z.CTG (standard z score) (ISC-enriched organoids [2]; dose 2.00 uM): 0.328 | Z.CTG (standard z score) (ISC-enriched organoids [2]; dose 10.00 uM): −0.051

VU 0357121
Z.LYZ.NS (standard z score) (ISC-enriched organoids [1]; dose 0.08 uM): 0.686 | Z.LYZ.NS (standard z score) (ISC-enriched organoids [1]; dose 0.40 uM): −0.090 | Z.LYZ.NS (standard z score) (ISC-enriched organoids [1]; dose 2.00 uM): 0.261 | Z.CTG (standard z score) (ISC-enriched organoids [2]; dose 0.08 uM): 0.438 | Z.CTG (standard z score) (ISC-enriched organoids [2]; dose 0.40 uM): 0.352 | Z.CTG (standard z score) (ISC-enriched organoids [2]; dose 2.00 uM): 0.029 | Z.CTG (standard z score) (ISC-enriched organoids [2]; dose 10.00 uM): −0.141

CCN(CC)C(=O)c1ccc(C2=CC3(CCNCC3)Oc3cccc(O)c32)cc1 [ADL5859 HCl]
Z.LYZ.NS (ISC-enriched organoids [1]; [12]): 0.163 | Z.CTG (ISC-enriched organoids [2]; [13]): 0.645 | Z.CTG (ISC-enriched organoids [2]; [12]): 0.389 | Z.CTG (ISC-enriched organoids [2]; [14]): 0.695 | Z.CTG (ISC-enriched organoids [2]; [15]): 0.465

CC1=C(/C=C/C(C)=C/C=C/C(C)=C\C(=O)O)C(C)(C)CCC1 [Isotretinoin]
SSMD.LYZ.NS (ISC-enriched organoids [1]; [8]): 0.753 | SSMD.LYZ.NS (ISC-enriched organoids [1]; [9]): 0.312 | SSMD.LYZ.NS (ISC-enriched organoids [1]; [10]): 0.410 | SSMD.LYZ.NS (ISC-enriched organoids [1]; [11]): 0.680 | Z.CTG (ISC-enriched organoids [2]; [4]): 0.982 | Z.CTG (ISC-enriched organoids [2]; [5]): 0.965 | Z.CTG (ISC-enriched organoids [2]; [6]): 0.604 | Z.CTG (ISC-enriched organoids [2]; [7]): 0.331 | SSMD.CTG (ISC-enriched organoids [2]; [8]): 1.156 | SSMD.CTG (ISC-enriched organoids [2]; [9]): 0.966 | SSMD.CTG (ISC-enriched organoids [2]; [10]): 0.779 | SSMD.CTG (ISC-enriched organoids [2]; [11]): 0.304

CC(C)C[C@H](NC(=O)[C@H](Cc1ccccc1)NC(=O)c1cnccn1)B(O)O [Bortezomib (PS-341)]
Dose.FC.CTG (ISC-enriched organoids [2]; primary screen, dose 0.08 uM, ENR+CD 6 days): −1.904 log 2 fold change | Z.CTG (ISC-enriched organoids [2]; [13]): −4.547 | Dose.FC.CTG (ISC-enriched organoids [2]; primary screen, dose 0.40 uM, ENR+CD 6 days): −2.146 log 2 fold change | Z.CTG (ISC-enriched organoids [2]; [12]): −5.127 | Dose.FC.CTG (ISC-enriched organoids [2]; primary screen, dose 2.00 uM, ENR+CD 6 days): −0.915 log 2 fold change | Z.CTG (ISC-enriched organoids [2]; [14]): −2.185 | Dose.FC.CTG (ISC-enriched organoids [2]; primary screen, dose 10.00 uM, ENR+CD 6 days): −1.359 log 2 fold change | Z.CTG (ISC-enriched organoids [2]; [15]): −3.246 | Dose.FC.LYZ.S (ISC-enriched organoids [3]; dose 0.08 uM): −0.239 log 2 fold change | Dose.FC.LYZ.S (ISC-enriched organoids [3]; dose 0.40 uM): −0.173 log 2 fold change | Dose.FC.LYZ.S (ISC-enriched organoids [3]; dose 2.00 uM): −0.249 log 2 fold change | Dose.FC.LYZ.S (ISC-enriched organoids [3]; dose 10.00 uM): −0.238 log 2 fold change

From patent US20230398130A1, “METHODS AND COMPOSITIONS FOR DIFFERENTIATING STEM CELLS” (Massachusetts Institute of Technology, priority 2020, published 2023)
